Experimental data from US20260297060A1, “COMPOUNDS FOR THE DEGRADATION OF MUTANT BRAF” (C4 THERAPEUTICS, INC., priority 2023, published 2026).

Experiments:
[1] = system: A375-NRAS^Q61K cells; assay: CTGlo Cell Viability Assay, A375-NRAS^Q61K (A375.11) cells, 96 hours; type: cell-based, human; details: Homo sapiens, 96 h, A375.11 (A375-NRAS^Q61K) cells; for Emax: lowest % viability achieved
Outline: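 Viability as CellTiter-Glo ATP luminescence after 96 h compound exposure at 37 °C; A375.11 (BRAF V600E/NRAS Q61K) cells at 250/well, top final concentration 10 μM in half-log steps. Signal was background-corrected and set relative to DMSO controls. A 4-parameter logistic fit gave GI50 (50% crossing) and Emax.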

[2] = target: T1, human bile salt export pump (BSEP) efflux transporter (Homo sapiens, UniProt O95342); assay: BSEP Vesicular Transport Inhibition Assay (IC50 determination); type: biochemical; details: human BSEP (HEK293) vesicles; taurocholate 0.2 μM; 4 mM Mg-ATP; 10 concentrations, 1 replicate; in nM
T1 construct: purchased SOLVO Biotechnology Charles River Laboratories, Szeged, Hungary; host or cells: HEK293 (inside out membrane vesicles)
Outline: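 Inside-out membrane vesicles from HEK293 cells expressing human BSEP were incubated with taurocholate probe substrate and compound (10 concentrations, single replicate) with 4 mM Mg-ATP, or 4 mM AMP for background, for 5 min at 37 °C. Vesicle-trapped substrate was quantified by liquid scintillation counting after filtration.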

T1 sequence (O95342 whole entry): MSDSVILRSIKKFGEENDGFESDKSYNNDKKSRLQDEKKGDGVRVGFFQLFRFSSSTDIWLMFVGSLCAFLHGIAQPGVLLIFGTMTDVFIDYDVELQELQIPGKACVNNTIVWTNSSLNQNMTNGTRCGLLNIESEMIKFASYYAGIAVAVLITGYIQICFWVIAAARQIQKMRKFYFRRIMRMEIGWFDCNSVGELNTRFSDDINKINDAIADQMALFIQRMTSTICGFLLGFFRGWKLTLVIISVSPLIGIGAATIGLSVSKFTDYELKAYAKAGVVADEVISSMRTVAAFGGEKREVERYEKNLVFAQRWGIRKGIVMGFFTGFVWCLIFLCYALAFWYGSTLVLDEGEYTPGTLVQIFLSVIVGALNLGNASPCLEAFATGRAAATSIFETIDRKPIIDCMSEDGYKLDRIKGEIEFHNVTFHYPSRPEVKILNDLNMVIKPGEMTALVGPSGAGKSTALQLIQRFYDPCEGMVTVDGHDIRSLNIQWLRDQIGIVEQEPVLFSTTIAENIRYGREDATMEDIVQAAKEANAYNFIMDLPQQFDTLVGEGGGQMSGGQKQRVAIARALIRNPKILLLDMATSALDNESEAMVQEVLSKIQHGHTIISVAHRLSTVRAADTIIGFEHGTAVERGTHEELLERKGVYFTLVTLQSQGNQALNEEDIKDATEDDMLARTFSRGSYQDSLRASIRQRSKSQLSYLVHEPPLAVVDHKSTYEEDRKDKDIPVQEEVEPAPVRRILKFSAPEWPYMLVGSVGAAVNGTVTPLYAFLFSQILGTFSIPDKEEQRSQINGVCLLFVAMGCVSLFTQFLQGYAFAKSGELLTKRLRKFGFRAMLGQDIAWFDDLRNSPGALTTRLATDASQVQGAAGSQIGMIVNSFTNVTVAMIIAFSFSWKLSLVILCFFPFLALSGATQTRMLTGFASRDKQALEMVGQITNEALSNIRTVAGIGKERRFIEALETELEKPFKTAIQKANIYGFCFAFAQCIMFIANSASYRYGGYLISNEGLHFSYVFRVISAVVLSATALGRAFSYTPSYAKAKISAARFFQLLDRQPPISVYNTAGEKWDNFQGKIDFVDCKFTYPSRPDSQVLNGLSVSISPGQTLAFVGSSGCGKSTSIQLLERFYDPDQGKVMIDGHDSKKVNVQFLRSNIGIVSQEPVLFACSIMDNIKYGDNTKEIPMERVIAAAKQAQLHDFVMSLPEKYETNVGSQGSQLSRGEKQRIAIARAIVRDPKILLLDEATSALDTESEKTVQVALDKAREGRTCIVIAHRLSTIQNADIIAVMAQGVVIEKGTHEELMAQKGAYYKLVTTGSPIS

Row | SMILES | GI50 [1] [nM] | Emax [1] [%] | BSEP Inhibition/IC50 [2]
1 | CO[C@@H]1CCN(S(=O)(=O)Nc2ccc(F)c(Oc3ccc4ncn(C5CC6(CCN(C7CC8(C7)CN(c7cc9c(cc7F)c(N7CCC(=O)NC7=O)nn9C)C8)CC6)C5)c(=O)c4c3)c2C#N)C1 (stereo partly drawn) [Compound 269, (3R)-N-[2-cyano-3-[3-[7-[2-[3-(2,4-dioxohexahydropyrimidin-1-yl)-5-fluoro-1-methyl-indazol-6-yl]-2-azaspiro[3.3]heptan-6-yl]-7-azaspiro[3.5]nonan-2-yl]-4-oxo-quinazolin-6-yl]oxy-4-fluoro-phenyl]-3-methoxy-pyrrolidine-1-sulfonamide] | < 1000 | < 50 | >40000
2 | COC1CN(S(=O)(=O)Nc2ccc(F)c(Oc3ccc4ncn(C5CC6(CCN(C7CC8(C7)CN(c7cc9c(cc7F)c(N7CCC(=O)NC7=O)nn9C)C8)CC6)C5)c(=O)c4c3)c2C#N)C1 (stereo not drawn) [Compound 280, N-[2-cyano-3-[3-[7-[2-[3-(2,4-dioxohexahydropyrimidin-1-yl)-5-fluoro-1-methyl-indazol-6-yl]-2-azaspiro[3.3]heptan-6-yl]-7-azaspiro[3.5]nonan-2-yl]-4-oxo-quinazolin-6-yl]oxy-4-fluoro-phenyl]-3-methoxy-azetidine-1-sulfonamide] | < 1000 | < 50 | 26550
